Entries after “also recorded” stand apart in the source; their conditions may differ.

One experiment relates to MDA-MB-231 cells. As to the kind of experiment: Flow cytometry of DPP-3 in MDA-MB-231 cells. Format: cell-based, human. Conditions: MDA-MF-231 as printed; 1 μM inhibitor; 5 μM DPP-3, 5 min. The method, then:
(§1) Cells were plated on a 10 cm dish with 10 mL of DMEM/High Glucose (10% FBS, 1% P/S, L-Glutamine, Sodium pyruvate) 36-48 hours prior to the day of experiment and maintained at 37° C., 5% CO2 so as to obtain 80-90% confluency. Cells were washed with DPBS and trypsinized with 1 mL 0.05% Trypsin. 5 mL of DMEM/High Glucose (10% FBS, L-Glutamine, Sodium pyruvate) was added and cells were spun down at 1200 rpm for 3 min. Media was discarded and cells were resuspended in 5 mL of Live Cell Imaging Solution and again spun down at 1200 rpm for 3 min. The cells pellets obtained were resuspended in 3-5 mL of Live Cell Imaging Solution and divided into 500 μL aliquots. The aliquots were treated with either 0.2% DMSO carrier or 1 μM of PalmB/ML348 or 1 μM/5 μM of ML349 inhibitor. After 30 min of incubation at room temperature, 1 μL of 2.5 mM DPP-3 in DMSO was added to each aliquot for a final concentration of 5 μM, and the solutions were mixed. After 5 min incubation at room temperature, fluorescence signal in FITC channel was measured for 10000 cells (5000 for HeLa experiments) on a LSR-Fortessa 4-15 HTS (BD digital instrument, 488 nm laser with 530/30 nm filter for FITC; BD, Franklin Lakes, N.J., United States of America). For analyzing DPP2 in HEK293T cells, the aliquots were treated with either 0.2% DMSO carrier or 2 μM of PalmB, 5 or 20 μM of ML348/ML349 and then analyzed by the protocol as mentioned above. Data was analyzed by FlowJo software version 10.0.8. For comparison of A431 starved versus non-starved, parallel 10 cm dishes of A431 cells were plated in 10 mL of DMEM (high glucose, 10% FBS, 1% P/S), and grown for 36 h. The growth media was removed, and replaced by 10 mL of either DMEM (High glucose) with 10% FBS to maintain “growth” conditions, or DMEM (High glucose) without FBS respectively for “starvation” conditions, and incubated for 14 h. After trypsinization, both plates were treated with 5 mL of DMEM (high glucose) for spinning the cells down, and further processing and analysis were performed as described above by flow cytometry.
For orientation: A flow cytometer gives signals particle by particle.

A further experiment concerns A431 cells. As to the kind of experiment: DPP-3 in A431 cells, starvation and EGF stimulation (flow cytometry, microscopy). The format is cell-based, human. Conditions: A431, starved and non-starved, 1 μM inhibitor, 5 μM DPP-3. The method, then:
as §1
Parallel 35 mm glass bottom dishes (D35-10-1.5-N; Cellvis, Mountain View, Calif., United States of America) of A431 cells (450,000) were plated in 2 mL of DMEM glutamax (high glucose, 10% FBS, 1% P/S), and grown for 36 h. The growth media was removed, and replaced by 1.5 mL of either DMEM (High glucose) with 10% FBS to maintain “growth” conditions, or DMEM (High glucose) without FBS respectively for “starvation” conditions, and incubated for 24 h. […] For data analysis, the average fluorescence intensity per image in each experimental condition was obtained by selecting ROIs in the brightfield image. For display, the data were normalized to the average fluorescence intensity of the control conditions. […]

Consider `O=C(CN1CCN(C(=O)c2ccco2)CC1)Nc1cc(C(F)(F)F)ccc1Cl` [ML348], for which the results for the “effect of inhibitor on depalmitoylation signal measured by DPP-3” value in the experiment on MDA-MB-231 cells, with A431 cells and in the experiment with A431 cells (listed as M348) were “knocks down the depalmitoylation signal”, “knocks down the depalmitoylation signal” and “knocked down”, respectively.

With `CCCCCCCCCC[C@@H]1C(=O)O[C@H]1CCc1ccc(OC)c(OC)c1` [PalmB, palmostatin B], the “effect of inhibitor on depalmitoylation signal measured by DPP-3” value with MDA-MB-231 cells is “knocks down the depalmitoylation signal”; in the experiment with A431 cells it was “knocked down; also recorded: knocks down the depalmitoylation signal”.
